# Measured values taken from US20180140572A1, “COMPOSITIONS COMPRISING A CANCER STEMNESS INHIBITOR AND AN IMMUNOTHERAPEUTIC AGENT FOR USE IN TREATING CANCER” (Boston Biomedical, Inc., priority 2015, published 2018).
# What was measured:
# [1] = system: IDO1; assay: Endogenous IDO1 mRNA in SKOV3 cells (qPCR); format: cell-based; conditions: 6 or 24 hour, 1 μM or 2 μM, normalized to GAPDH
# Source text: Specifically, RNA was isolated, reverse transcribed, and the cDNA was used in a qPCR assay to determine the mRNA levels for IDO1. Data was normalized to GAPDH.
# [2] = system: IDO1; assay: IDO1 expression in colorectal cancer xenograft model (SW480); format: in vivo, mouse; conditions: SW480 xenograft, 0, 1, 2, 4, 8, and 24 hours
# Description: (§1) FIG. 13A and FIG. 13B show an exemplary reduction in IDO1 expression at 0, 1, 2, 4, 8, and 24 hours after treatment of SW480 xenograft colorectal cancer cells (FIG. 13A) and SKOV3 xenograft ovarian cancer cells (FIG. 13B) with an exemplary cancer sternness inhibitor, e.g., BBI608, according to certain embodiments of the present disclosure.
# (§2) At the end of treatment, tumors were harvested from euthanized mice. Part of the dissected tumors were fixed overnight in 3.7% or 10% neutral buffered formaldehyde at 4° C., and then paraffin embedded, cut to 4-5 micron sections, and affixed onto positively charged slides. After baking and deparaffinization, the slides with tumor or control tissues were incubated in a 10 mM sodium citrate solution pH=6.0 for antigen retrieval at 98° C. […] After mounting in ProLong mounting medium containing DAPI (Invitrogen), the slides were examined on a Zeiss Axio Imager M2 upright fluorescence microscope with a 20× objective and analyzed with Zen software.
# [3] = system: IDO1; assay: IDO1 expression in ovarian cancer xenograft model (SKOV-3); format: in vivo, mouse; conditions: SKOV-3 xenograft, 0, 1, 2, 4, 8, and 24 hours
# Description: as §1, §2
# [4] = system: PD-L1; assay: IFNγ-induced PD-L1 expression in CT26 cells (Western blotting); format: cell-based, mouse; conditions: 100 ng/ml IFNγ, 24 hours, 1 μM BBI608
# Description: 3×10^5 CT26 cells in 6-well plated were treated with 100 ng/ml IFNγ for 24 hours at the presence of control DMSO or 1 μM BBI608. Cells were washed twice with ice-cold PBS and lysed in lysis buffer [50 mM Hepes (pH 7.5), 1% Nonidet P-40, 150 mM NaCl, 1 mM EDTA, and 1× protease and phosphatase inhibitor mixture (EMD Millipore)]. Soluble protein (20 μg) was separated by SDS/PAGE and transferred to nitrocellulose membranes. Primary antibodies against P-STAT3 (Y705), PD-L1, and ACTIN (Sigma) were used in this study. The antigen-antibody complexes were visualized by enhanced chemiluminescence (BioRad).
# [5] = system: B-cell proliferation; assay: B-cell proliferation in lymph node adjacent to xenograft B16F10 tumor (PCNA staining); format: in vivo, mouse
# Source text: The tissues were stained with PCNA.
# [6] = system: tumor-infiltrating T cells (TILs); assay: Tumor-infiltrating T cells in CT26 tumors (CD3 immunofluorescence); format: in vivo, mouse; conditions: vs control tumors
# Source text: All BALB/c mice (Taconic, Hudson, N.Y., USA) were housed in Association for Assessment and Accreditation of Laboratory Animal Care approved facilities in static microisolator cages. Murine MSS-status colon carcinoma CT26 cells (ATCC CRL-2639) and murine breast carcinoma cells 4T1 (ATCC CRL-2539) were purchased from American Type Culture Collection (ATCC, Manassas, Va., USA), and grown in RPMI-1640 medium (ATCC) supplemented with 10% heat-inactivated fetal calf serum. After harvesting during exponential growth, tumors were initiated by subcutaneously implanting 3×10^5 CT26 tumor cells into the right dorsal flank of each 8-12 week old female BALB/c mouse. […] Body weight and clinical signs were monitored throughout the course of the treatment in accordance with the Institutional Animal Care and Use Committee approved protocols. Drug efficacy was analyzed by measuring tumor volume in mm^3 calculated by multiplying 0.5×width^2×length. […]
# At the end of treatment, tumors were harvested from euthanized mice. […] After mounting in ProLong mounting medium containing DAPI (Invitrogen), the slides were examined on a Zeiss Axio Imager M2 upright fluorescence microscope with a 20× objective and analyzed with Zen software.
# [7] = system: STAT3 pathway; conditions: read-out: STAT3 pathway activity cellular IC50; cited from earlier work
smiles,measurement,setting,value
"CC(=O)c1cc2c(o1)C(=O)c1ccccc1C2=O [BBI608, 2-acetylnaphtho[2,3-b]furan-4,9-dione]",endogenous IDO1 expression (mRNA),[1],inhibited
same,IDO1 expression level,[2],reduced IDO1 expression level in a time-dependent manner
same,IDO1 expression level,[3],reduced the IDO1 expression level in a time-dependent manner
same,IFNγ-induced PD-L1 expression,[4],reduced
same,B-cell proliferation in lymph node adjacent to tumor,[5],multiple centers of B-cell proliferation
same,number of tumor-infiltrating T cells (TILs),[6],tended to increase
same,IC50,[7],~0.25 µM
